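These data come from cells grown in 96-well plates and exposed to compound for 48 hours at five concentrations. GI50 is the concentration that inhibits growth by half.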 The source made the active and inactive calls. Rule as the data show it: active = GI50 up to about 1.1 µM and inactive = higher.
How the values were obtained:
Assay in all cases: growth of human tumour cells (NCI), 48 h
[1] = tested on: A549
[2] = tested on: CAKI-1
[3] = tested on: CCRF-CEM
[4] = tested on: COLO 205
[5] = tested on: EKVX
[6] = tested on: HCC 2998
[7] = tested on: LXFL 529
[8] = tested on: NCI-H522
[9] = tested on: OVCAR-4
[10] = tested on: OVCAR-5
[11] = tested on: OVCAR-8
[12] = tested on: SF-268
[13] = tested on: SK-MEL-5
[14] = tested on: SR
[15] = tested on: MCF7
[16] = tested on: MDA-MB-231
[17] = tested on: MDA-MB-435
[18] = tested on: MDA-N
[19] = tested on: NCI/ADR-RES

Measured: GI50

C/N=c1\ss/c(=N\C(=S)N(C)C)n1-c1ccccc1
inactive: [1] > 100 µM | [2] > 100 µM | [3] > 100 µM | [4] > 100 µM | [5] > 100 µM | [6] > 100 µM | [7] > 100 µM | [8] 9.14 µM | [9] > 100 µM | [10] > 100 µM | [11] > 100 µM | [12] 34 µM | [13] > 20.7 µM | [14] > 100 µM

Sc1nc(S)nc(Oc2ccc(Cl)c(Cl)c2)n1
inactive: [1] 22.4 µM | [2] 46.3 µM | [3] 23.2 µM | [4] > 42.3 µM | [5] 42.1 µM | [6] 17.8 µM | [7] 34.9 µM | [15] 50.6 µM | [16] 39.4 µM | [17] > 100 µM | [18] 77.1 µM | [8] 18.5 µM | [19] 38 µM | [9] 41.1 µM | [10] 59.2 µM | [11] 32.5 µM | [12] > 52.4 µM | [13] 24.5 µM | [14] 30.1 µM

COc1cc(Cc2cc(OC)c(OC)c(OC)c2)ccc1O
inactive: [1] 8.59 µM | [2] 62.1 µM | [3] 6.32 µM | [4] 77.8 µM | [5] 27 µM | [6] 27 µM | [7] 43.6 µM | [8] 9.31 µM | [9] 82.2 µM | [10] > 100 µM | [11] 25.5 µM | [12] 36.3 µM | [13] 3.85 µM | [14] 6.08 µM

FC(F)(F)c1nc(-c2ccccc2)oc1Sc1oc(-c2ccccc2)nc1C(F)(F)F
inactive: [1] > 100 µM | [2] 26.8 µM | [3] > 100 µM | [4] > 100 µM | [5] > 100 µM | [6] > 100 µM | [7] > 100 µM | [8] 45.8 µM | [9] 19.7 µM | [10] > 100 µM | [11] 36.7 µM | [12] 52.5 µM | [13] > 100 µM | [14] 46.6 µM

From ChEMBL document CHEMBL1201862, “PubChem BioAssay data set” (2004)
